In article PMC6274124, “Design, Synthesis and Biological Evaluation of Brain-Targeted Thiamine Disulfide Prodrugs of Ampakine Compound LCX001” (Molecules, 2016):

Tests used:
[1] = Metabolic stability in mice plasma extract at 37 °C; format: in vitro ADME; settings: for half-life at 1.67 µg/mL: mouse
Description: (§1) To determine the plasma stability and brain stability of these prodrugs, we assayed the pharmacokinetics of the prepared compounds 7a–7f in mice plasma extract and brain homogenate at 37 °C. The pseudo-first order rate constants of disappearance (Ke) of the prodrugs and their half lives (t1/2) which were calculated by linear regression of Ln of peak area against time in minutes are listed in Table 1.
(§2) Blood was drawn from mice though the orbital sinus and was collected in a heparinized tube paved with heparin sodium. Samples were centrifuged at 10,000 rpm for 16 min to separate plasma which was diluted with four volumes of water. The brain was removed and homogenized. Samples were then placed on ice and used immediately. Ten μL acetonitrile solution (10 μg/mL) of the compound was added to 50 μL of plasma or brain homogenate and gently vortexed. Samples were incubated at 37 °C and aliquots were removed after 0, 5, 15, 30, 60 and 90 min, respectively. One hundred μL acetonitrile was added to each and vortexed. Samples were centrifuged for 10 min to remove proteins and the supernatants were analyzed by LC-MS/MS method as described.

[2] = Metabolic stability in mice brain homogenate at 37 °C; format: in vitro ADME; settings: for half-life at 1.67 µg/mL: mouse, mouse brain homogenate
Description: as §1, §2

[3] = system: respiratory depression induced by pain relieving opiates; design: method as in PMID 19907420; settings: single oral dose of 1500 mg, without affecting the pain relieving effects; cited from earlier work
[4] = Brain distribution of LCX001 after i.v. administration; format: in vivo, Kunming mice; settings: mice; for AUC0-t: LCX001 in brain, single dose equivalent to 1 mg/kg LCX001, n = 3
Description: To further evaluate the possibility of prodrug 7e being transported across the BBB, the brain distribution of prodrug 7e and LCX001 after injection were detected at fixed time intervals. […] The AUC0-t for prodrug 7e was enhanced to 2.23 times that of LCX001. The MRT0-t was increased to 3.29 times that of LCX001. […] This agreed well with the fact that the “lock-in” effect and sustained release effect of the prodrug 7e could effectively delay the clearance of LCX001.
(§3) Mice were randomly divided into two groups, 27 in each group, for different sampling times and housed in one cage. Each animal was injected with 7e or LCX001 in 20% w/v hydroxypropyl-β-cyclodextrin and saline (0.45%) solution through the tail vein at a single dose equivalent to 1 mg/kg body weight of LCX001. At appropriate time intervals (5, 10, 30, 45, 60, 90, 120, 240 and 480 min), the animals were sacrificed and 1 mL blood samples withdrawn from the orbital sinus were collected in heparinized tubes. Fifty μL plasma was immediately separated by centrifugation, diluted with 200 μL methanol and stored at −20 °C until assay. Meanwhile, the brain was removed, weighed, homogenized and diluted with methanol to 1:5 (g/mL). The homogenates were also stored at −20 °C until assay. Internal standard (200 ng/mL) was added to the samples. The samples were vortexed for 3 min and then centrifuged at 9500 rpm for 15 min. Fifty μL supernatants were withdrawn, then 50 μL of water was added to each aliquot and vortexed. Ten μL samples were analyzed by LC-MS/MS method as described.
The Cmax, AUC0-t, Tmax, MRT0-t and t1/2 were calculated by WinNonlin software (version 5.2.1, Pharsight, Mountain View, CA, USA). Statistical evaluation was performed using analysis of variance followed by t-test. A value of p < 0.05 was considered significant.

[5] = Pharmacokinetics of LCX001 in plasma after i.v. administration; format: in vivo, Kunming mice; settings: mice
Description: The compounds were injected through the caudal vein of the mice with a single dose equivalent to 1 mg/kg body weight of LCX001, and then blood was collected to analyze the concentration of LCX001 at different intervals by an LC-MS/MS method.
as §3, with “Fifty μL supernatants were withdrawn, then 50 μL of water was added to each aliquot and vortexed.” left out
The Cmax, AUC0-t, Tmax, MRT0-t and t1/2 were calculated by WinNonlin software (version 5.2.1, Pharsight, Mountain View, CA, USA). […]

[6] = system: opiate poisoned mice; assay: Model of opiate-induced respiratory depression (030418-induced), mortality of mice; format: in vivo, Kunming mice; settings: for Death Rate: 10 min before 030418 15 mg/kg sc
Description: To investigate the effect of 7e on opiate-induced respiratory depression, we proceeded with a preliminary pharmacodynamic study in mice. […] Varying doses of prodrug 7e were administered 10 min before 030418 administration. The effect of prodrug 7e and LCX001 on opiate-induced respiratory depression was evaluted by the mortality of mice. […] Further pharmacodynamic studies are currently underway.
A total of 80 male Kunming mice weighing 20–22 g were used in this study. Animals were fed ad libitum with a commercial rodent feed and had free access to drinking water. All animals received human care, and the study protocols complied with the guidelines of the animal center of academy of military medical sciences. Throughout the experiments, the animals were handled according to the international ethical guidelines for the care of laboratory animals.
Respiratory depression in conscious mice was induced by hypodermic (15 mg/kg) administration of 030418. Ten min prior to 030418 administration, animals were randomly assigned to the experimental groups and received an intravenous injection of either saline solution (control), LCX001 (10 mg/kg), prodrug 7e (30 mg/kg, 10 mg/kg, 3 mg/kg, 1 mg/kg or 0.5 mg/kg) (Table 4).
During the experiment, the poisoning time, poisoning symptoms and death time were recorded. The death rate (death number/sample number) was used to evaluate the effect of 7e on opiate-induced respiratory depression.

[7] = system: damphetamine- stimulated locomotion; design: method as in earlier work; settings: behavioral testing; cited from earlier work
[8] = system: field excitatory postsynaptic potential (EPSP) in the rat dentate gyrus; design: method as in earlier work; settings: cited from earlier work

CCSS/C(CCOC(=O)CCCC(=O)O[C@H]1CC[C@H](N(C)C(=O)c2ccc3nonc3c2)CC1)=C(/C)N(C)C=O [Compound 7a, S-3-(Ethyldisulfanyl)-4-(N-methylformamido)pent-3-en-1-yl((1R,4R)-4-(N-methylbenzo[c][1,2,5]oxadiazole-5-carboxamido)cyclohexyl) glutarate]
melting point: 78.8 to 79.5 °C | Ke, pseudo-first order rate constant of disappearance [1]: 31.1 min^−1 (×10^−2) | half-life at 1.67 µg/mL [1]: 2.23 min | Ke, pseudo-first order rate constant of disappearance [2]: 19.9 min^−1 (×10^−2) | half-life at 1.67 µg/mL [2]: 3.48 min

CCCSS/C(CCOC(=O)CCCC(=O)O[C@H]1CC[C@H](N(C)C(=O)c2ccc3nonc3c2)CC1)=C(/C)N(C)C=O [Compound 7b, S-3-(Propyldisulfanyl)-4-(N-methylformamido)pent-3-en-1-yl((1R,4R)-4-(N-methylbenzo[c][1,2,5]oxadiazole-5-carboxamido)cyclohexyl) glutarate]
melting point: 78 to 79.3 °C | Ke, pseudo-first order rate constant of disappearance [1]: 7.06 min^−1 (×10^−2) | half-life at 1.67 µg/mL [1]: 9.82 min | Ke, pseudo-first order rate constant of disappearance [2]: 6.82 min^−1 (×10^−2) | half-life at 1.67 µg/mL [2]: 10.2 min

CCCCSS/C(CCOC(=O)CCCC(=O)O[C@H]1CC[C@H](N(C)C(=O)c2ccc3nonc3c2)CC1)=C(/C)N(C)C=O [Compound 7c, S-3-(Butyldisulfanyl)-4-(N-methylformamido)pent-3-en-1-yl((1R,4R)-4-(N-methylbenzo[c][1,2,5]oxadiazole-5-carboxamido)cyclohexyl) glutarate]
melting point: 67.6 to 68.4 °C | Ke, pseudo-first order rate constant of disappearance [1]: 6.77 min^−1 (×10^−2) | half-life at 1.67 µg/mL [1]: 10.2 min | Ke, pseudo-first order rate constant of disappearance [2]: 4.05 min^−1 (×10^−2) | half-life at 1.67 µg/mL [2]: 17.1 min

O=C(c1ccc2nonc2c1)N1CCOCC1 [CX717]
Effect on opiate-induced respiratory depression [3]: positive effects

C/C(=C(\CCOC(=O)CCCC(=O)O[C@H]1CC[C@H](N(C)C(=O)c2ccc3nonc3c2)CC1)SSCCC(C)C)N(C)C=O [Compound 7e, S-3-(Isoamyldisulfanyl)-4-(N-methylformamido)pent-3-en-1-yl((1R,4R)-4-(N-methylbenzo[c][1,2,5]oxadiazole-5-carboxamido)cyclohexyl) glutarate]
AUC0-t [4]: 1125.49 ± 336.57 * h·ng/g | AUC0-t of LCX001 in brain, times that of LCX001 ([4]; brain): 2.23 times | MRT0-t of LCX001 in brain, times that of LCX001 ([4]; brain): 3.29 times | MRT of LCX001 in plasma, times that of LCX001 [5]: 0.77 times | Required molar dose relative to LCX001 to achieve the same effect ([6]; 3 mg/kg 7e gave the same effect as 10 mg/kg LCX001 on reducing mortality): one eighth | Death Rate ([6]; iv 0.5 mg/kg): 50% | Death Rate ([6]; iv 1 mg/kg): 30% | Death Rate ([6]; iv 3 mg/kg): 20% | Death Rate ([6]; iv 10 mg/kg): 0% | Death Rate ([6]; iv 30 mg/kg): 0% | Ke, pseudo-first order rate constant of disappearance [1]: 4.34 min^−1 (×10^−2) | half-life at 1.67 µg/mL [1]: 16 min | Ke, pseudo-first order rate constant of disappearance [2]: 3.69 min^−1 (×10^−2) | half-life at 1.67 µg/mL [2]: 18.8 min

CCCCCSS/C(CCOC(=O)CCCC(=O)O[C@H]1CC[C@H](N(C)C(=O)c2ccc3nonc3c2)CC1)=C(/C)N(C)C=O [Compound 7d, S-3-(Amyldisulfanyl)-4-(N-methylformamido)pent-3-en-1-yl((1R,4R)-4-(N-methylbenzo[c][1,2,5]oxadiazole-5-carboxamido)cyclohexyl) glutarate]
melting point: 69.3 to 70.3 °C | Ke, pseudo-first order rate constant of disappearance [1]: 4.50 min^−1 (×10^−2) | half-life at 1.67 µg/mL [1]: 15.4 min | Ke, pseudo-first order rate constant of disappearance [2]: 6.34 min^−1 (×10^−2) | half-life at 1.67 µg/mL [2]: 10.9 min

C/C(=C(\CCOC(=O)CCCC(=O)O[C@H]1CC[C@H](N(C)C(=O)c2ccc3nonc3c2)CC1)SSCc1ccccc1)N(C)C=O [Compound 7f, S-3-(Benzyldisulfanyl)-4-(N-methylformamido)pent-3-en-1-yl((1R,4R)-4-(N-methylbenzo[c][1,2,5]oxadiazole-5-carboxamido)cyclohexyl) glutarate]
melting point: 72.9 to 73.8 °C | Ke, pseudo-first order rate constant of disappearance [1]: 4.48 min^−1 (×10^−2) | half-life at 1.67 µg/mL [1]: 15.5 min | Ke, pseudo-first order rate constant of disappearance [2]: 5.78 min^−1 (×10^−2) | half-life at 1.67 µg/mL [2]: 12 min

CN(C(=O)c1ccc2nonc2c1)[C@H]1CC[C@H](O)CC1 [LCX001]
AUC0-t [4]: 504.32 ± 204.71 ng·h/g | Death Rate ([6]; iv 10 mg/kg): 20% | Inhibition of d-amphetamine-stimulated locomotion [7]: 100% | Increase in amplitude of the field EPSP [8]: 21%
